These results are taken from PubChem BioAssay AID248 (DTP/NCI, 2004).

Several values for one entry are separate records, joined by “and”; a condition that tells them apart may be missing. Equal values may be shown once. Toxic doses and inconclusive results are not listed.

The assay has as its system L1210 leukemia ip in BDF1 mice, survival T/C. Nature of the assay: NCI In Vivo Anticancer Drug Screen. Data for tumor model L1210 Leukemia (intraperitoneal) in B6D2F1 (BDF1) mice. Particulars: endpoint: mean survival time, higher = longer survival. The procedure, abridged: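 Each compound was tested against a transplantable tumor grown in mice. The endpoint was survival, with treated animals benchmarked against vehicle controls as a simple ratio.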

Setting [1] is: dose: 100.0 mg/kg/injection, schedule: Q04DX002 (ip), vehicle: saline.
The mark [2] stands for this setting: dose: 200.0 mg/kg/injection, schedule: Q04DX002 (ip), vehicle: saline.
The mark [3] stands for this setting: dose: 400.0 mg/kg/injection, schedule: Q04DX002 (ip), vehicle: saline.
Setting [4] is: dose: 100.0 mg/kg/injection, schedule: Q01DX001 (ip), vehicle: saline.
Where [5] appears, read: dose: 100.0 mg/kg/injection, schedule: Q04DX003 (ip), vehicle: saline.
Setting [6] is: dose: 100.0 mg/kg/injection, schedule: Q04DX003 (ip), vehicle: saline with Tween-80.
[7] abbreviates: dose: 200.0 mg/kg/injection, schedule: Q04DX003 (ip), vehicle: saline with Tween-80.
[8] abbreviates: dose: 400.0 mg/kg/injection, schedule: Q04DX003 (ip), vehicle: saline with Tween-80.
Where [9] appears, read: dose: 100.0 mg/kg/injection, schedule: Q01DX001 (ip), vehicle: carboxymethylcellulose (CMC).
[10] abbreviates: dose: 200.0 mg/kg/injection, schedule: Q01DX001 (ip), vehicle: carboxymethylcellulose (CMC).
The mark [11] stands for this setting: dose: 100.0 mg/kg/injection, schedule: Q04DX002 (ip), vehicle: saline with Tween-80.
[12] abbreviates: dose: 200.0 mg/kg/injection, schedule: Q04DX002 (ip), vehicle: saline with Tween-80.
[13] abbreviates: dose: 400.0 mg/kg/injection, schedule: Q04DX002 (ip), vehicle: saline with Tween-80.
Where [14] appears, read: dose: 50.0 mg/kg/injection, schedule: Q04DX003 (ip), vehicle: Klucel (hydroxypropylcellulose) (HPC).

In the case of `O=C(NCC1=NCCN1)c1ccccc1`, the T/C under setting [1] is 96 % of control, the T/C under setting [2] is 89 % of control and the T/C under setting [3] was 96 % of control.

Consider `Cc1ccc([N+](=O)[O-])cc1NC(=O)SCCOC(=O)COc1ccc(Cl)cc1`, for which the T/C (dose: 50.0 mg/kg/injection, schedule: Q01DX009 (ip), vehicle: saline with Tween-80) was 97 % of control; the T/C (dose: 100.0 mg/kg/injection, schedule: Q01DX009 (ip), vehicle: saline with Tween-80) was 97 % of control and 106 % of control; the T/C (dose: 200.0 mg/kg/injection, schedule: Q01DX009 (ip), vehicle: saline with Tween-80) is 103 % of control.

In the case of `CC(C)N(CCSc1ncnc2nc[nH]c12)C(C)C`, where the note is “dose: 75.0 mg/kg/injection, schedule: Q01DX001 (ip), vehicle: saline”, the T/C is 96 % of control.

As to `COC(=O)C1CCC(NC(=O)NCCCl)CC1` (stereo not given), the T/C is, setting by setting: (dose: 100.0 mg/kg/injection, schedule: Q01DX001 (ip), vehicle: Klucel (hydroxypropylcellulose) (HPC)) 95 % of control and 103 % of control; (dose: 200.0 mg/kg/injection, schedule: Q01DX001 (ip), vehicle: Klucel (hydroxypropylcellulose) (HPC)) 93 % of control and 97 % of control; (dose: 400.0 mg/kg/injection, schedule: Q01DX001 (ip), vehicle: Klucel (hydroxypropylcellulose) (HPC)) 95 % of control.

As to `N#[N+]c1ccccc1-c1nc(N)nc(N)n1`, the T/C was 110 % of control (dose: 25.0 mg/kg/injection, schedule: Q01DX009 (ip), vehicle: saline); 113 % of control (dose: 25.0 mg/kg/injection, schedule: Q04DX003 (ip), vehicle: saline); 100 % of control (dose: 50.0 mg/kg/injection, schedule: Q01DX009 (ip), vehicle: saline); 103 % of control (dose: 50.0 mg/kg/injection, schedule: Q04DX003 (ip), vehicle: saline); 99 % of control under setting [4]; 92 % of control (dose: 100.0 mg/kg/injection, schedule: Q01DX009 (ip), vehicle: saline). Moreover, the T/C under setting [5] is 96 % of control.

For `Cc1c2ccncc2c(C)c2c1sc1ccccc12`, the T/C (dose: 5.0 mg/kg/injection, schedule: Q01DX009 (ip), vehicle: Klucel (hydroxypropylcellulose) (HPC)) was 106 % of control; the T/C (dose: 10.0 mg/kg/injection, schedule: Q01DX009 (ip), vehicle: Klucel (hydroxypropylcellulose) (HPC)) is 117 % of control; the T/C (dose: 20.0 mg/kg/injection, schedule: Q01DX009 (ip), vehicle: Klucel (hydroxypropylcellulose) (HPC)) is 124 % of control; the T/C (dose: 20.0 mg/kg/injection, schedule: Q01DX009 (ip), vehicle: other) is 113 % of control; the T/C (dose: 31.0 mg/kg/injection, schedule: Q01DX001 (ip), vehicle: other) is 105 % of control; the T/C (dose: 62.0 mg/kg/injection, schedule: Q01DX001 (ip), vehicle: other) was 111 % of control. Also, the T/C reads like this: (dose: 80.0 mg/kg/injection, schedule: Q01DX009 (ip), vehicle: other) 121 % of control; (dose: 125.0 mg/kg/injection, schedule: Q01DX001 (ip), vehicle: other) 121 % of control; (dose: 250.0 mg/kg/injection, schedule: Q01DX001 (oral), vehicle: other) 112 % of control; (dose: 500.0 mg/kg/injection, schedule: Q01DX001 (ip), vehicle: other) 187 % of control; (dose: 500.0 mg/kg/injection, schedule: Q01DX001 (oral), vehicle: other) 112 % of control.

Consider `COC1OCC(OS(C)(=O)=O)C(OS(C)(=O)=O)C1OS(C)(=O)=O` (stereo not given), for which the T/C runs as follows: under setting [6], 97 % of control and 96 % of control; under setting [7], 97 % of control and 98 % of control; under setting [8], 100 % of control and 98 % of control.

Regarding `O=C(c1ccccc1CO)N1CCCCC1`, the T/C is, setting by setting: (dose: 100.0 mg/kg/injection, schedule: Q04DX002 (ip), vehicle: Klucel (hydroxypropylcellulose) (HPC)) 112 % of control; (dose: 200.0 mg/kg/injection, schedule: Q04DX002 (ip), vehicle: Klucel (hydroxypropylcellulose) (HPC)) 105 % of control.

Take `Cc1nc(N)nc(N)c1-c1ccc([N+](=O)[O-])cc1`: the T/C reads like this: under setting [9], 95 % of control; under setting [10], 95 % of control.

Take `CN(C)C1CCC(C=C(C2CCC(CC(=O)O)CC2)C2CCC(CC(=O)O)CC2)CC1` (stereo not given): the T/C by setting is: under setting [11], 111 % of control; under setting [12], 101 % of control; under setting [13], 105 % of control.

Take `CCCC(=O)C(CC)C(=O)Nc1ccccc1` (stereo not given): the T/C runs as follows: under setting [14], 100 % of control; under setting [9], 94 % of control; (dose: 100.0 mg/kg/injection, schedule: Q04DX003 (ip), vehicle: Klucel (hydroxypropylcellulose) (HPC)) 93 % of control; under setting [10], 105 % of control; (dose: 200.0 mg/kg/injection, schedule: Q04DX003 (ip), vehicle: Klucel (hydroxypropylcellulose) (HPC)) 102 % of control; (dose: 400.0 mg/kg/injection, schedule: Q01DX001 (ip), vehicle: carboxymethylcellulose (CMC)) 100 % of control.

As for `CCN(CC)C(=O)c1c(Cl)n(C)c2ccccc12`, the T/C reads like this: (dose: 12.5 mg/kg/injection, schedule: Q04DX003 (ip), vehicle: Klucel (hydroxypropylcellulose) (HPC)) 95 % of control; (dose: 25.0 mg/kg/injection, schedule: Q04DX003 (ip), vehicle: Klucel (hydroxypropylcellulose) (HPC)) 104 % of control; under setting [14], 104 % of control.

Consider `N#CCCCCN=[N+]=[N-]`, for which the T/C runs as follows: (dose: 37.5 mg/kg/injection, schedule: Q04DX003 (ip), vehicle: saline) 87 % of control; (dose: 75.0 mg/kg/injection, schedule: Q04DX003 (ip), vehicle: saline) 104 % of control; (dose: 150.0 mg/kg/injection, schedule: Q04DX003 (ip), vehicle: saline) 98 % of control.

Turning to `CCOC(=O)C(C(=O)OCC)N(C(=O)C(Cl)Cl)c1ccccc1`, the T/C is 97 % of control (dose: 100.0 mg/kg/injection, schedule: Q04DX003 (ip), vehicle: other); 96 % of control (dose: 200.0 mg/kg/injection, schedule: Q04DX003 (ip), vehicle: other); 94 % of control (dose: 400.0 mg/kg/injection, schedule: Q04DX003 (ip), vehicle: other).

With `Cc1cc(CCNC=O)c(C)c2c1sc1ccccc12`, the T/C by setting is: (dose: 50.0 mg/kg/injection, schedule: Q01DX001 (ip), vehicle: saline) 97 % of control; under setting [4], 97 % of control; (dose: 200.0 mg/kg/injection, schedule: Q01DX001 (ip), vehicle: saline) 92 % of control; (dose: 400.0 mg/kg/injection, schedule: Q01DX001 (ip), vehicle: saline) 94 % of control.

Turning to `COc1cc2ccc(/C(C)=N/OC(C)=O)cc2cc1OC`, the T/C runs as follows: under setting [6], 100 % of control; under setting [7], 100 % of control; under setting [8], 106 % of control.

As to `O=[N+]([O-])c1cccc(OCCCCOc2ccccc2)c1`, the T/C is, setting by setting: (dose: 100.0 mg/kg/injection, schedule: Q01DX009 (ip), vehicle: Klucel (hydroxypropylcellulose) (HPC)) 98 % of control; under setting [5], 100 % of control; (dose: 200.0 mg/kg/injection, schedule: Q01DX009 (ip), vehicle: Klucel (hydroxypropylcellulose) (HPC)) 101 % of control; (dose: 200.0 mg/kg/injection, schedule: Q04DX003 (ip), vehicle: saline) 101 % of control; (dose: 400.0 mg/kg/injection, schedule: Q01DX009 (ip), vehicle: Klucel (hydroxypropylcellulose) (HPC)) 102 % of control; (dose: 400.0 mg/kg/injection, schedule: Q04DX003 (ip), vehicle: saline) 95 % of control.

Regarding `CC(=O)OCC(C)(C)c1ccccc1`, the T/C runs as follows: under setting [1], 105 % of control; under setting [2], 97 % of control; under setting [3], 105 % of control.

As for `COc1ccc(C(=S)N(C)c2ccccc2)cc1`, the T/C (dose: 100.0 mg/kg/injection, schedule: Q04DX003 (ip), vehicle: gum acacia) is 96 % of control; the T/C (dose: 200.0 mg/kg/injection, schedule: Q04DX003 (ip), vehicle: gum acacia) was 93 % of control; the T/C (dose: 400.0 mg/kg/injection, schedule: Q04DX003 (ip), vehicle: gum acacia) was 95 % of control.

As for `C/C(=N/NC(=O)CC#N)c1ccccc1`, the T/C is 101 % of control under setting [11], 104 % of control under setting [12] and 95 % of control under setting [13].
